Source: ChEMBL document CHEMBL5226367, “Synthesis, Optical Properties, and Antiproliferative Evaluation of NBD-Triterpene Fluorescent Probes” (J Nat Prod, 2023)
Calls of active or inactive are those of the source. The calls are words filed in the database; no cut-off is given here.

How the values were obtained:
[1] = Drug localization in cytoplasm of mouse B16-F10 cells assessed as green fluorescence at IC50 concentration incubated for 30 min to 24 hrs by DAPI staining based confocal microscopic analysis; type: ADME, subcellular; details: time 30-1440 min
[2] = tested on: HepG2; test: Potency index, ratio of maslinic acid IC50 to test compound IC50 for cytotoxicity against human HepG2 cells assessed as reduction in cell viability incubated for 72 hrs by MTT assay; type: functional
[3] = tested on: B16-F10; test: Potency index, ratio of oleanolic acid IC50 to test compound IC50 for cytotoxicity against mouse B16-F10 cells assessed as reduction in cell viability incubated for 72 hrs by MTT assay; type: functional
[4] = tested on: HepG2; test: Potency index, ratio of oleanolic acid IC50 to test compound IC50 for cytotoxicity against human HepG2 cells assessed as reduction in cell viability incubated for 72 hrs by MTT assay; type: functional
[5] = tested on: HepG2; test: Induction of apoptosis in human HepG2 cells at IC50 concentration incubated for 24 hrs by Annexin V-FITC/PI staining based flow cytometric analysis; type: functional, cell-based
[6] = tested on: HT-29; test: Induction of apoptosis in human HT-29 cells at IC50 concentration incubated for 24 hrs by Annexin V-FITC/PI staining based flow cytometric analysis; type: functional, cell-based
[7] = tested on: HT-29; test: Potency index, ratio of oleanolic acid IC50 to test compound IC50 for cytotoxicity against human HT-29 cells assessed as reduction in cell viability incubated for 72 hrs by MTT assay; type: functional
[8] = Drug localization in cytoplasm of human HepG2 cells assessed as green fluorescence at IC50 concentration incubated for 30 min to 24 hrs by DAPI staining based confocal microscopic analysis; type: ADME, subcellular; details: time 30-1440 min
[9] = tested on: B16-F10; test: Induction of apoptosis in mouse B16-F10 cells at IC50 concentration incubated for 24 hrs by Annexin V-FITC/PI staining based flow cytometric analysis; type: functional, cell-based
[10] = tested on: HT-29; test: Potency index, ratio of maslinic acid IC50 to test compound IC50 for cytotoxicity against human HT-29 cells assessed as reduction in cell viability incubated for 72 hrs by MTT assay; type: functional
[11] = tested on: HT-29; test: Cytotoxicity against human HT-29 cells assessed as decrease in cell density at IC50 concentration; type: functional, cell-based; details: time 30-1440 min, TDE = time-dependent effect
[12] = Drug localization in cytoplasm of human HT-29 cells assessed as green fluorescence at IC50 concentration incubated for 30 min to 24 hrs by DAPI staining based confocal microscopic analysis; type: ADME, subcellular; details: time 30-1440 min
[13] = tested on: HepG2; test: Cytotoxicity against human HepG2 cells assessed as decrease in cell density at IC50 concentration; type: functional, cell-based; details: time 30-1440 min, TDE = time-dependent effect
[14] = tested on: B16-F10; test: Cytotoxicity against mouse B16-F10 cells assessed as decrease in cell density at IC50 concentration; type: functional, cell-based; details: time 30-1440 min, TDE = time-dependent effect
[15] = tested on: B16-F10; test: Potency index, ratio of maslinic acid IC50 to test compound IC50 for cytotoxicity against mouse B16-F10 cells assessed as reduction in cell viability incubated for 72 hrs by MTT assay; type: functional
[16] = tested on: B16-F10; test: Induction of apoptosis in mouse B16-F10 cells assessed as total apoptotic cells at IC50 concentration incubated for 72 hrs by Annexin V-FITC/PI staining based flow cytometric analysis relative to control; type: functional
[17] = tested on: HT-29; test: Induction of apoptosis in human HT-29 cells assessed as total apoptotic cells at IC50 concentration incubated for 72 hrs by Annexin V-FITC/PI staining based flow cytometric analysis relative to control; type: functional
[18] = tested on: HepG2; test: Induction of apoptosis in human HepG2 cells assessed as total apoptotic cells at IC50 concentration incubated for 72 hrs by Annexin V-FITC/PI staining based flow cytometric analysis relative to control; type: functional

SMILES | Drug uptake [1] | Ratio IC50 [2] | Ratio IC50 [3] | Ratio IC50 [4] | Activity [5] | Activity [6] | Ratio IC50 [7] | Drug uptake [8] | Activity [9] | Ratio IC50 [10] | Activity [11] | Drug uptake [12] | Activity [13] | Activity [14] | Ratio IC50 [15] | Activity [16] [%] | Activity [17] [%] | Activity [18] [%]
CC1(C)CC[C@]2(C(=O)O)CC[C@]3(C)C(=CC[C@@H]4[C@@]5(C)C[C@@H](OC(=O)CCCCCNc6ccc([N+](=O)[O-])c7nonc67)[C@H](O)C(C)(C)[C@@H]5CC[C@]43C)[C@@H]2C1 | Active | 7.1 | 22 | 15 | Active | Active | 65 | Active | Active | 5 | Tde | Active | Tde | Tde | 7.4 |  |  | 
CC1(C)CC[C@]2(C(=O)O)CC[C@]3(C)C(=CC[C@@H]4[C@@]5(C)CC[C@H](OC(=O)CCCCCNc6ccc([N+](=O)[O-])c7nonc67)C(C)(C)[C@@H]5CC[C@]43C)[C@@H]2C1 | Active | 7.9 | 44 | 17 | Active | Active | 22 | Active | Active | 1.7 | Tde | Active | Tde | Tde | 15 | 31 | 31 | 31
